From patent US20260184663A1, “INDENE COMPOUNDS, PHARMACEUTICAL COMPOSITIONS THEREOF, AND THEIR THERAPEUTIC APPLICATIONS” (NucMito Pharmaceuticals co. Ltd., priority 2022, published 2026) come the findings set out here.

What all share (type): cell-based
For assay [1], the system named is MDA-MB-231 (breast cancer). Description: Antiproliferative activity (CCK-8 cell viability), MDA-MB-231. The note with it: Homo sapiens, 72 h; for inhibition at 3.3 µM: Compound concentration: 3.3 μM; for inhibition at 10 µM: Compound concentration: 10 μM; for inhibition at 30 µM: Compound concentration: 30 μM. Summed up: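 In this CCK-8 viability assay, MDA-MB-231 cells maintained in Dulbecco's modified Eagle's medium containing 10% fetal bovine serum were placed in 96-well plates (2,000-5,000 cells/well) and treated with compound for 72 h at 37° C. A 4 h incubation with 10 μL CCK-8 followed, plates were read at 450 nm, and viability was expressed against DMSO vehicle wells across replicates.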

Another assay deals with HepG2 (liver cancer). Description: Antiproliferative activity (CCK-8 cell viability), HepG2. As to conditions: Homo sapiens, 72 h, read-out: Antiproliferative activity in cancerous cells, HepG2 (inhibition of cell growth); for inhibition at 3.3 µM: Compound concentration: 3.3 μM; for inhibition at 10 µM: Compound concentration: 10 μM; for inhibition at 30 µM: Compound concentration: 30 μM. The essentials: (§1)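 Cells were seeded at 2,000-5,000/well (HeLa in MEM, HepG2 and SW480 in DMEM, A549 in F-12K, all with 10% FBS) and treated with compound at 3.3, 10 or 30 μM for 72 h at 37° C. CCK-8 was added for 4 h, absorbance was read at 450 nm, and viability was expressed relative to DMSO-treated wells.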

The next assay concerns SW480 (colon cancer). The assay can be described thus: Antiproliferative activity (CCK-8 cell viability), SW480. The note with it: Homo sapiens, 72 h; for inhibition at 3.3 µM: Compound concentration: 3.3 μM; for inhibition at 10 µM: Compound concentration: 10 μM; for inhibition at 30 µM: Compound concentration: 30 μM. Summed up:
as §1

For assay [2], the system named is B16F10 (malignant melanoma). The assay can be described thus: Antiproliferative activity (CCK-8 cell viability), B16F10. The note with it: Mus musculus, 72 h, read-out: Antiproliferative activity in cancerous cells, B16F10 (inhibition of cell growth); for inhibition at 3.3 µM: B16-F10, Compound concentration: 3.3 μM; for inhibition at 10 µM: B16-F10, Compound concentration: 10 μM; for inhibition at 30 µM: B16-F10, Compound concentration: 30 μM. The essentials: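 Attached B16F10 cells in 96-well plates were incubated with compound at 37° C for 72 h, followed by 10 μL CCK-8 reagent per well and a further 4 h incubation. A multi-well plate reader measured absorbance at 450 nm. Percent viability across replicates was calculated against DMSO vehicle-treated cells.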

Assay [3] concerns A431 (epidermoid carcinoma). The assay can be described thus: Antiproliferative activity (CCK-8 cell viability), A431. The note with it: Homo sapiens, 72 h, read-out: Antiproliferative activity in cancerous cells, A431 (inhibition of cell growth); for inhibition at 3.3 µM: A-431, Compound concentration: 3.3 μM; for inhibition at 10 µM: A-431, Compound concentration: 10 μM; for inhibition at 30 µM: A-431, Compound concentration: 30 μM. The essentials: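 Cell viability of compound-treated A431 cells was measured with a Cell Counting Kit-8. Each well received 10 μL of CCK-8 after 72 h of compound exposure, followed by 4 h incubation at 37° C. and a 450 nm plate-reader measurement. Percent viability was calculated relative to DMSO controls across replicates.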

Assay [4] concerns A549 (lung adenocarcinoma). The assay can be described thus: Antiproliferative activity (CCK-8 cell viability), A549. As to conditions: Homo sapiens, 72 h, read-out: Antiproliferative activity in cancerous cells, A549 (inhibition of cell growth); for inhibition at 3.3 µM: Compound concentration: 3.3 μM; for inhibition at 10 µM: Compound concentration: 10 μM; for inhibition at 30 µM: Compound concentration: 30 μM. The essentials: as §1

A further assay has as its system HeLa (cervical cancer). Description: Antiproliferative activity (CCK-8 cell viability), HeLa. The note with it: Homo sapiens, 72 h, read-out: Antiproliferative activity in cancerous cells, HELA (inhibition of cell growth); for inhibition at 3.3 µM: Compound concentration: 3.3 μM; for inhibition at 10 µM: Compound concentration: 10 μM; for inhibition at 30 µM: Compound concentration: 30 μM. The essentials: as §1

Where [5] appears, read: read-out: Antiproliferative activity in cancerous cells, MDA-MB-231 (inhibition of cell growth).
[6] abbreviates: read-out: Antiproliferative activity in cancerous cells, SW480 (inhibition of cell growth).
Where [7] appears, read: read-out: Antiproliferative activity in cancerous cells, SW480.

Structures are written as SMILES. Read-outs that look alike come from different tables or passages of the source.

Consider `COc1ccc(/C=C2/C(C)=C(CC(=O)O)c3cc(F)ccc32)cc1Cl` [D12, (Z)-2-(1-(3-Chloro-4-methoxybenzylidene)-5-fluoro-2-methyl-1H-inden-3-yl)acetic acid], for which the inhibition at 3.3 µM in assay [1] (setting [5]) was less than 30%; with HepG2 (liver cancer), less than 30%; in the assay on SW480 (colon cancer) (setting [6]), less than 30%; in assay [2] it was less than 30%; in assay [3] it was no less than 50%; in assay [4], less than 30%. Also, the inhibition at 3.3 µM in the assay with HeLa (cervical cancer) was less than 30%. The inhibition at 10 µM in assay [1] (setting [5]) is 30 to 50%; with HepG2 (liver cancer) it was 30 to 50%; in the assay with SW480 (colon cancer) (setting [6]), less than 30%; in assay [2], 30 to 50%; in assay [3] it was no less than 50%; in assay [4] it was less than 30%. In the assay with HeLa (cervical cancer), the inhibition at 10 µM lay in the range of 30 to 50%. The inhibition at 30 µM (in assay [1] (setting [5]); in the assay with HepG2 (liver cancer); with SW480 (colon cancer) (setting [6]); in assay [2]; in assay [3]; in assay [4]) was no less than 50% throughout. In addition, the inhibition at 30 µM in the assay with HeLa (cervical cancer) is no less than 50%.
`CC1=C(CC(=O)O)c2cc(F)ccc2/C1=C\c1ccc(Oc2ccc(Cl)cc2)cc1` [C60, (Z)-2-(1-(4-(4-Chlorophenoxy)benzylidene)-5-fluoro-2-methyl-1H-inden-3-yl)acetic acid]: the inhibition at 3.3 µM is less than 30% in assay [1] (setting [5]); no less than 50% in the assay on HepG2 (liver cancer); less than 30% in the assay on SW480 (colon cancer) (setting [6]); 30 to 50% in assay [2]; no less than 50% in assay [3]; 30 to 50% in assay [4]. In the assay with HeLa (cervical cancer), the inhibition at 3.3 µM is no less than 50%. For the same compound, the inhibition at 10 µM in assay [1] (setting [5]) is less than 30%; with HepG2 (liver cancer), no less than 50%; with SW480 (colon cancer) (setting [6]) it was less than 30%; in assay [2], 30 to 50%; in assay [3] it was no less than 50%; in assay [4], no less than 50%. Also, in the assay with HeLa (cervical cancer), the inhibition at 10 µM was no less than 50%. Besides, the inhibition at 30 µM in the assay on SW480 (colon cancer) (setting [7]) is 30 to 50%.
For the compound `CC1=C(CC(=O)O)c2cc(F)ccc2/C1=C/c1ccc(Oc2ccc(F)cc2Cl)cc1` [E25, (E)-2-(1-(4-(2-Chloro-4-fluorophenoxy)benzylidene)-5-fluoro-2-methyl-1H-inden-3-yl)acetic acid], the inhibition at 3.3 µM in assay [1] (setting [5]) is less than 30%; in the assay on HepG2 (liver cancer), less than 30%; in the assay on SW480 (colon cancer) (setting [6]), no less than 50%; in assay [2], 30 to 50%; in assay [3] it was no less than 50%; in assay [4], less than 30%. Besides, in the assay on HeLa (cervical cancer), the inhibition at 3.3 µM fell in the range of 30 to 50%. The inhibition at 10 µM was less than 30% in assay [1] (setting [5]); no less than 50% in the assay with HepG2 (liver cancer); no less than 50% with SW480 (colon cancer) (setting [6]); 30 to 50% in assay [2]; no less than 50% in assay [3]; less than 30% in assay [4]. Moreover, the inhibition at 10 µM in the assay with HeLa (cervical cancer) was no less than 50%. Besides, the inhibition at 30 µM (in assay [1] (setting [5]); in the assay with HepG2 (liver cancer); with SW480 (colon cancer) (setting [6]); in assay [2]; in assay [3]; in assay [4]) was no less than 50% in each case. Moreover, in the assay on HeLa (cervical cancer), the inhibition at 30 µM is no less than 50%.
As for `CC1=C(CC(=O)O)c2cc(F)ccc2/C1=C\c1ccc(COc2ccc(Cl)cc2)cc1Br` [B72, (Z)-2-(1-(2-Bromo-4-((4-chlorophenoxy)methyl)benzylidene)-5-fluoro-2-methyl-1H-inden-3-yl)acetic acid], the inhibition at 3.3 µM in assay [1] (setting [5]) was 30 to 50%; in the assay with HepG2 (liver cancer) it was no less than 50%; in the assay with SW480 (colon cancer) (setting [6]), 30 to 50%; in assay [2] it was no less than 50%; in assay [3] it was no less than 50%; in assay [4], no less than 50%. Besides, the inhibition at 3.3 µM with HeLa (cervical cancer) is no less than 50%. The inhibition at 10 µM was 30 to 50% in assay [1] (setting [5]); no less than 50% in the assay with HepG2 (liver cancer); 30 to 50% in the assay with SW480 (colon cancer) (setting [6]); no less than 50% in assay [2]; no less than 50% in assay [3]; no less than 50% in assay [4]. Besides, in the assay with HeLa (cervical cancer), the inhibition at 10 µM was no less than 50%. The inhibition at 30 µM with SW480 (colon cancer) (setting [7]) was in the range of 30 to 50%.
As to `CC1=C(CC(=O)O)c2cc(C)ccc2/C1=C\c1ccc(CCc2ccccc2)cc1` [B147, (Z)-2-(2,5-Dimethyl-1-(4-phenethylbenzylidene)-1H-inden-3-yl)acetic acid], the inhibition at 3.3 µM was less than 30% in assay [1] (setting [5]); less than 30% in the assay on HepG2 (liver cancer); less than 30% in the assay on SW480 (colon cancer) (setting [6]); less than 30% in assay [2]; no less than 50% in assay [3]; less than 30% in assay [4]. In the assay with HeLa (cervical cancer), the inhibition at 3.3 µM is less than 30%. In addition, the inhibition at 10 µM in assay [1] (setting [5]) was less than 30%; in the assay with HepG2 (liver cancer), no less than 50%; with SW480 (colon cancer) (setting [6]), no less than 50%; in assay [2] it was no less than 50%; in assay [3], no less than 50%; in assay [4], no less than 50%. Also, the inhibition at 10 µM in the assay with HeLa (cervical cancer) was no less than 50%. Further, the inhibition at 30 µM in assay [1] (read-out: Antiproliferative activity in cancerous cells, MDA-MB-231) was 30 to 50%.
For the compound `CC1=C(CC(=O)O)c2cc(F)ccc2/C1=C\c1ccc(COCc2ccc(F)c(F)c2)cc1` [B105, (Z)-2-(1-(4-(((3,4-Difluorobenzyl)oxy)methyl)benzylidene)-5-fluoro-2-methyl-1H-inden-3-yl)acetic acid], the inhibition at 3.3 µM in assay [1] (setting [5]) is 30 to 50%; in the assay on HepG2 (liver cancer) it was less than 30%; in the assay with SW480 (colon cancer) (setting [6]) it was 30 to 50%; in assay [2], 30 to 50%; in assay [3] it was 30 to 50%; in assay [4], 30 to 50%. For the same compound, the inhibition at 3.3 µM with HeLa (cervical cancer) was no less than 50%. In addition, the inhibition at 10 µM (in assay [1] (setting [5]); in the assay on HepG2 (liver cancer); in the assay on SW480 (colon cancer) (setting [6]); in assay [2]; in assay [3]; in assay [4]) was no less than 50% throughout. For the same compound, the inhibition at 10 µM in the assay on HeLa (cervical cancer) is no less than 50%.
